The subject of one experiment is G-quadruplex. Particulars: versus duplex, single strand, and hairpins; method of Balasubramanian et al.; cited from earlier work.
The test system of experiment [1] is human MDA-MB-23 1 breast cancer cells. As to the kind of experiment: Extracellular telomere release into cell-free conditioned media (qPCR). The experiment is classed as cell-based. The method, then: (§1) The samples to be tested were centrifuged at 1200×g for 6 minutes to remove residual cells. The supernatant was removed and centrifuged at 12,000× for 12 minutes to remove cellular debris. DNA was isolated from the final supernatant using a Qiagen DNA isolation kit. The DNA concentration of each sample was determined with the highly sensitive pico-green fluorometric assay (Invitrogen; Carlsbad, Calif.).
(§2) The obtained purified cell-free DNA was assayed for extracellular telomere sequences. Extracellular telomeres were measured using quantitative PCR (qPCR) with the widely accepted method of Cawthon (“Telomere measurement by quantitative PCR,” Nucleic Acids Research, 30:e47 (2002)). Other DNA sequences (actin, BRCA 1, alpha satellite DNA, and Alu repeats) were analyzed using published primers and conditions. Normal human genomic DNA (Roche; Basel, Switzerland) was used to create a telomere qPCR standard curve for the clinical specimens. For mouse standard curves, normal mouse genomic DNA isolated from murine peripheral blood cells was used.
In general terms: Quantitative PCR measures a nucleic acid by following its amplification.

Experiment [2] has as its system D54, a human brain cancer cell line. As to the kind of experiment: Extracellular telomere release into conditioned media (qPCR). It is filed as cell-based. Conditions: in response to doxorubicin treatment (FIG. 2B). The method, then: as §1, §2
Experiment [3] deals with U373, a human brain cancer cell line. The description is as above. The experiment is classed as cell-based. Particulars: in response to doxorubicin treatment (FIG. 2A). The method, then:
as §1, §2

Results on 2 compounds are retold here after patent US20150031554A1, “EXTRACELLULAR TELOMERE ASSAY” (The UAB Research Foundation, priority 2012, published 2015).

Consider `NCCOc1cc(C(=O)Nc2cc(OCCN)c3ccccc3n2)nc(C(=O)Nc2cc(OCCN)c3ccccc3n2)c1` [compound 2, pyridostatin], for which the selectivity of capture result in the experiment with G-quadruplex was “selective for G-quadruplex capture over other DNA structural motifs”.
In the case of `COc1cccc2c1C(=O)c1c(O)c3c(c(O)c1C2=O)C[C@@](O)(C(=O)CO)C[C@@H]3O[C@H]1C[C@H](N)[C@H](O)[C@H](C)O1` [doxorubicin], the extracellular telomere release entry in experiment [1] (doxorubicin 10^−5 M, indicated times, Alu and alpha satellite sequences as controls (FIG. 1)) is reported as “specifically released”; in experiment [2], “extracellular telomere release”; in experiment [3], “extracellular telomere release”. Also, the “telomere enrichment in cell-free conditioned media” value in experiment [1] (qPCR, compared with untreated cells or cells subjected to hypoxia, 2 independent experiments (FIG. 5)) is “highly enriched”.
